Ends that are not written are not given here.

The record followed here is publication PMC9452538, “The antimicrobial peptide LI14 combats multidrug-resistant bacterial infections” (Communications Biology, 2022).

Holding throughout (assay): microbe, parasite or virus in culture
What all share (set-up): Antibacterial activity of LI14 derivates: unit not given here

In one experiment the test system is MRSA T144. It is filed as cell-based, Staphylococcus aureus. To be noted: MRSA T144; unit not given. The method, then: (§1) An antimicrobial activity study was conducted on all peptides against a panel of laboratory bacteria, including ATCC source and clinical isolates with resistance determinants. According to CLSI2021 guidelines, we tested the minimum inhibitory concentrations (MICs) of peptides using standard broth micro-dilutions. Briefly, bacteria grown to exponential phase were diluted in 1:1000 to MHB, subsequently, equivalent amounts of bacterial suspension (1.5 × 10^6 CFUs/mL) were mixed with different concentrations of peptides in a sterilized 96-well microtiter plate (Corning).

The test system of the next experiment is S. aureus ATCC 29213. It is filed as cell-based, Staphylococcus aureus. To be noted: S. aureus 29213; unit not given. On the procedure: as §1
The subject of experiment [1] is E. coli B2 (blaNDM-5 + mcr-1). It is filed as cell-based, Escherichia coli. The following applies: E. coli B2; unit not given. The method, then: as §1
The subject of the next experiment is E. coli ATCC 25922. It is filed as cell-based, Escherichia coli. To be noted: E. coli 25922; unit not given. On the procedure:
as §1

Regarding “AKKLCRILKKLCRI-NH2 [LI14-A1, Ala substitute of LI14, position 1]”, the “Antibacterial activity of LI14 derivates” value is 64 in the experiment on MRSA T144, 16 in the experiment on S. aureus ATCC 29213, 4 in experiment [1] and 16 in the experiment with E. coli ATCC 25922.

With “LAKLCRILKKLCRI-NH2 [LI14-A2, Ala substitute of LI14, position 2]”, the “Antibacterial activity of LI14 derivates” value with MRSA T144 was determined as 16; with S. aureus ATCC 29213, 8; in experiment [1] it was 4; in the experiment on E. coli ATCC 25922 it was 8.

As for “LKALCRILKKLCRI-NH2 [LI14-A3, Ala substitute of LI14, position 3]”, the “Antibacterial activity of LI14 derivates” value is listed as 8 in the experiment on MRSA T144, 8-16 in the experiment with S. aureus ATCC 29213, 8 in experiment [1] and 16 in the experiment on E. coli ATCC 25922.

As for “LKKACRILKKLCRI-NH2 [LI14-A4, Ala substitute of LI14, position 4]”, the “Antibacterial activity of LI14 derivates” value is 64 in the experiment with MRSA T144, 64 in the experiment on S. aureus ATCC 29213, 8 in experiment [1] and 16-32 with E. coli ATCC 25922.

Consider LKKLARILKKLCRI-NH2 [LI14-A5], for which the “Antibacterial activity of LI14 derivates” value in the experiment with MRSA T144 amounted to 16; in the experiment with S. aureus ATCC 29213, 16; in experiment [1], 4; with E. coli ATCC 25922, 4.

As for “LKKLCAILKKLCRI-NH2 [LI14-A6, Ala substitute of LI14, Arg at position 6]”, the “Antibacterial activity of LI14 derivates” value in the experiment with MRSA T144 was over 128; in the experiment on S. aureus ATCC 29213, over 128; in experiment [1] it was 32; with E. coli ATCC 25922, 128.

For the substance “LKKLCRALKKLCRI-NH2 [LI14-A7, Ala substitute of LI14, position 7]”, the “Antibacterial activity of LI14 derivates” value with MRSA T144 turned out to be 64; with S. aureus ATCC 29213 it was 64; in experiment [1] it was 16; in the experiment on E. coli ATCC 25922, 32.

Take “LKKLCRIAKKLCRI-NH2 [LI14-A8, Ala substitute of LI14, position 8]”: the “Antibacterial activity of LI14 derivates” value in the experiment with MRSA T144 amounted to 64; in the experiment with S. aureus ATCC 29213, 128; in experiment [1], 8; with E. coli ATCC 25922, 16.

With “LKKLCRILAKLCRI-NH2 [LI14-A9, Ala substitute of LI14, position 9]”, the “Antibacterial activity of LI14 derivates” value with MRSA T144 is 16; in the experiment on S. aureus ATCC 29213 it was 16; in experiment [1], 4; in the experiment with E. coli ATCC 25922 it was 8-16.

On to “LKKLCRILKALCRI-NH2 [LI14-A10, Ala substitute of LI14, position 10]”, for which the “Antibacterial activity of LI14 derivates” value in the experiment on MRSA T144 is recorded as 16; in the experiment with S. aureus ATCC 29213 it was 16-32; in experiment [1], 8; with E. coli ATCC 25922, 16-32.

As to “LKKLCRILKKACRI-NH2 [LI14-A11, Ala substitute of LI14, position 11]”, the “Antibacterial activity of LI14 derivates” value in the experiment with MRSA T144 amounted to 64; in the experiment on S. aureus ATCC 29213 it was 64; in experiment [1] it was 8; with E. coli ATCC 25922, 16.

On to LKKLCRILKKLARI-NH2 [LI14-A12], for which the “Antibacterial activity of LI14 derivates” value is given as 16 with MRSA T144, 8 in the experiment on S. aureus ATCC 29213, 4 in experiment [1] and 2 in the experiment with E. coli ATCC 25922.

Consider “LKKLCRILKKLCAI-NH2 [LI14-A13, Ala substitute of LI14, position 13]”, for which the “Antibacterial activity of LI14 derivates” value was 16 in the experiment on MRSA T144, 16 with S. aureus ATCC 29213, 4 in experiment [1] and 8 with E. coli ATCC 25922.
